Reference: patent publication US9889108B2, “Compositions and methods for treating non-alcoholic steatohepatitis” (priority 2013, dated 2018)

Experiments:
CYP450 = conditions: at free concentrations observed in humans; cited from earlier work
rats = test: Lipid lowering in rats; format: in vivo, rat
hamsters = test: Lipid lowering in hamsters; format: in vivo, hamster
rabbits = test: Lipid lowering in rabbits; format: in vivo, rabbit
platelets from rats = test: Platelet anti-aggregation, rat platelets; format: cell-based
platelets from rabbits = test: Platelet anti-aggregation, rabbit platelets; format: cell-based
platelets from humans = test: Platelet anti-aggregation, human platelets; format: cell-based
arteries in rabbits = test: Elasticity of arteries in rabbits; format: in vivo, rabbit
[1] = system: mouse diet-induced hepatic steatosis model; test: Mouse diet-induced hepatic steatosis model; format: in vivo; conditions: repeat oral administration at ≧0.1 mg/g
[2] = system: galactosamine-induced steatohepatitis mouse model; test: Galactosamine-induced steatohepatitis mouse model; format: in vivo; conditions: oral administration at 1000 mg/kg; by suppressing triglyceride accumulation
[3] = system: methionine-choline deficient diet rat model of nonalcoholic steatohepatitis; test: Methionine-choline deficient diet rat model of nonalcoholic steatohepatitis; format: in vivo; conditions: repeat oral administration at 1000 mg/kg; by suppressing inflammation and oxidative stress
[4] = system: central nervous, autonomic nervous, respiratory and cardiovascular systems; test: Safety pharmacology studies; format: in vivo; conditions: oral doses up to 3000 mg/kg
[5] = Absorption, distribution and metabolites after oral 14C-EPA-E in rats; format: in vivo, rat
Procedure: (§1) EPADEL is a product containing ethyl all-cis-5,8,11,14,17-eicosapentaenoate (EPA-E), one of the n-3 essential fatty acids. The preclinical absorption, distribution, metabolism and excretion (ADME) characteristics of EPA-E have been determined primarily in rats.
After administration of ^14C-EPA-E into the ligated intestine of rats, the residual radioactivity in the intestine at 24 hours was only 4.6% of the administered dose. Radioactivity transferred to the plasma and lymph was mainly detected in the triglyceride (TG) fraction in the early phase after dosing, while distribution to the free fatty acid (FFA) fraction was slight at all timepoints. […] Orally administered EPA-E was primarily incorporated in adrenal gland lipids as cholesterol esters of the fatty acids eicosapentaenoic acid (EPA), docosapentaenoic acid (DPA) and docosahexaenoic acid (DHA).
After oral administration of ^14C-EPA-E to the rat, EPA, DPA and DHA were detected as metabolites in the total lipid fraction of the plasma and tissues (liver, fat, heart and brain). […] In the total lipid fraction of the liver, the radioactivity originated mainly from EPA, DPA and DHA. Thus, it is considered that EPA, DPA and DHA are the predominant metabolites of ^14C-EPA-E in tissues, as constituent fatty acids of the total lipid fraction.

[6] = Excretion of radioactivity after single oral administration (rats); format: in vivo, rat
Procedure: as §1
Consequently, when EPA-E is administered orally to humans, it would appear that it is well absorbed, even though the unchanged ethyl ester form is not detected, and the free form (EPA) is only detected at a very low level, in the blood. Due to this absorption mechanism of essential fatty acids, the administered EPA-E exists as a blood-constituent fatty acid in the total lipids. […] Radioactivity was primarily excreted in expired air (44%) after single oral administration at 30 mg/kg EPA-E with minimal excretion in bile and urine (˜3%) and approximately 20% excreted in feces.
Renal excretion was the elimination route for several minor highly polar metabolites (<0.4%), but EPA-E, EPA, DPA or DHA were not detected in the urine. In feces, EPA-E and EPA, evidently derived from the unabsorbed drug, were detected; however, no DPA or DHA was detected in the feces.

subjects with NASH = test: Phase II double blind, placebo-controlled clinical trial of EPA-E in subjects with NASH; format: in vivo, human; parameters: Efficacy, proportion of responders (NAS Score ≦3 or improvement of ≧2 across at least 2 of NAS components): dose or concentration left out as unconfirmed
Text: The non-alcoholic fatty liver disease activity score (NAS) is defined as the unweighted sum of the values for steatosis (ranging from 0-3), lobular inflammation (ranging from 0-3) and ballooning (ranging from 0-2), thereby providing a range of NAS score of from 0 to 8. […] Alternatively, patients can show an improvement in NAS by a value of ≧2 across at least two of the NAS components, together with no worsening in fibrosis. Alternatively, patients can show an improvement in NAS score by ≧3, 4, 5, 6, 7 or 8. This example provides the protocol used for an ongoing phase II clinical trial, double blind, placebo-controlled study to investigate the safety, efficacy, and pharmacokinetic profile of two doses of EPA-E in subjects with NASH. Up to 70 subjects were enrolled into each treatment arm, for a total of 210 subjects to be enrolled. Block randomization using an interactive voice response system (IVRS) was used to assign patients in a 1:1:1 ratio to two active doses and placebo. Patients were stratified at randomization by presence or absence of diabetes. Patients with diabetes comprised no more than 25% of the total number of patients enrolled. […] Subjects were required to have a liver biopsy with proven NASH in the 6 month period prior to screening. The Pharmacokinetic profile for EPA-E was evaluated in a subgroup of subjects in specified sites. Subjects were approached prior to providing informed consent to determine if they will participate in the PK group subset. Approximately 36 subjects participated in the PK subset evaluation (12 from each treatment arm, to include 6 males and 6 females). In order to support the trial, EPA-E capsules and matching placebo capsules were prepared. EPA-E capsule is an oval soft gelatin capsule containing 300 mg of EPA-E as an active ingredient. […] These capsules are unidentifiable as EPA-E capsules or placebo capsules. Subjects were administered orally 3 capsules 3 times daily, immediately after meals. 1. Diagnosis of definite NASH by the central reading pathologists: • Liver biopsy slides will be submitted for evaluation by the central pathologists according to one of the following criteria: • a. Previous liver biopsies must have been obtained within 6 months prior to informed consent and should be judged by the local pathologist as showing NAS ≧4 with a minimum score of 1 each for steatosis and lobular inflammation plus […] ballooning OR at least 1a sinusoidal fibrosis AND a finding of possible or definite steatohepatitis • b. For liver biopsies performed after informed consent is obtained, all slides will be submitted for reading by the central pathologists in conformity with the independent pathology review charter (IPRC)

CC/C=C\C/C=C\C/C=C\C/C=C\C/C=C\CCCC(=O)O [EPA, eicosapentaenoic acid]
Inhibition of CYP450 (CYP450): unlikely to inhibit

CC/C=C\C/C=C\C/C=C\C/C=C\C/C=C\CCCC(=O)OCC [EPA-E, ethyl all-cis-5,8,11,14,17-eicosapentaenoate]
Lipid lowering (rats): lower lipids
Lipid lowering (hamsters): lower lipids
Lipid lowering (rabbits): lower lipids
Effect on platelet aggregation (platelets from rats): anti-aggregation effects
Effect on platelet aggregation (platelets from rabbits): anti-aggregation effects
Effect on platelet aggregation (platelets from humans): anti-aggregation effects
Elasticity of arteries (arteries in rabbits): preserve the elasticity of arteries
Fat accumulation [1]: suppressed fat accumulation
Hepatic SREBP-1c levels [1]: suppressing hepatic SREBP-1c levels
Progression of steatohepatitis [2]: retarded progression of steatohepatitis
Fibrosis [3]: inhibited fibrosis
Effect on central nervous, autonomic nervous, respiratory and cardiovascular systems [4]: no effect
Absorption ([5]; single oral dose of 14C-EPA-E 30-1000 mg/kg, rats, mainly through the lymphatic route): well-absorbed
EPA-E and EPA in feces ([6]; derived from the unabsorbed drug, no DPA or DHA detected): detected
EPA-E, EPA, DPA or DHA in the urine ([6]; species not given): not detected
Serum EPA/AA ratios, patients with sFas≦9.5 ng/mL versus sFas >9.5 ng/mL (subjects with NASH; Day 365, FIG. 21 and FIG. 22): higher
Response rate (subjects with NASH; fasting glucose=<125 mg/dL and HbA1c=<6.4, Study arm 1, FIG. 4): higher response to rate
Efficacy, response rate (subjects with NASH; fasting glucose=<125 mg/dL and HbA1c=<6.4, Study arm 2, FIG. 4): equivalent to that of Study arm 1
Efficacy, NASH response (change of NAS score) (subjects with NASH; patients with GGT levels=<33 IU/L, Study arm 1 and 2, FIG. 9): higher efficacy
Efficacy, preliminary endpoint achievement rate (subjects with NASH; patients with GGT levels=<60 IU/L, Study arm 1 and 2, FIG. 8): higher efficacy
Efficacy, improvement of serum EPA/AA ratio on Day 365 (subjects with NASH; patients with GGT ≦33 IU/L, Study arm 2, FIG. 10): higher efficacy
Efficacy, proportion of responders (subjects with NASH; patients with HbA1c=<6.4, Study arm 1, FIG. 2): higher efficacy
Efficacy, proportion of responders (subjects with NASH; patients with HbA1c=<6.4, Study arm 2, FIG. 2): equivalent to that of Study arm 1
Efficacy, proportion of responders (subjects with NASH; patients with NASH risk score equal to or less than 4.0, especially 3.0, 1800 mg EPA-E, TID, FIG. 19): higher efficacy
Efficacy, proportion of responders (subjects with NASH; patients with fasting glucose =<125 mg/dL, Study arm 1, FIG. 3): higher efficacy
Efficacy, proportion of responders (subjects with NASH; patients with fasting glucose =<125 mg/dL, Study arm 2, FIG. 3): equivalent to that of Study arm 1
Efficacy, proportion of responders (subjects with NASH; patients with sFas equal to or less 10.0 ng/mL and/or M30 equal to or less 1500 U/L, 1800 mg EPA-E, TID and 2700 mg EPA-E, TID, FIG. 18): higher efficacy
Efficacy, proportion of responders (subjects with NASH; patients with serum M30 equal to or less 1500 U/L, especially 900 U/L, more especially 500 U/L, 1800 mg EPA-E, TID, FIG. 17): higher efficacy
Efficacy, proportion of responders (subjects with NASH; patients with serum sFas equal to or less 9.5 ng/mL, 1800 mg EPA-E, TID, FIG. 14): higher efficacy
Efficacy, NASH response (change of NAS score) (subjects with NASH; patients with serum sFas equal to or less 9.5 ng/mL, Study arm 1 (1800 mg EPA-E, TID), FIG. 16): higher efficacy
Efficacy, proportion of responders (subjects with NASH; patients with serum sFas equal to or less 10.0 ng/mL, especially 9.5 ng/mL, 1800 mg EPA-E, TID, FIG. 15): higher efficacy
Efficacy, proportion of responders (subjects with NASH; patients without biliary tract disease markers (GGT ≦33 IU/L), Study arm 1 (600 mg TID) and Study arm 2 (900 mg TID), FIG. 7): higher efficacy
Efficacy, proportion of responders (NAS Score ≦3 or improvement of ≧2 across at least 2 of NAS components) (subjects with NASH; patients without diabetes or with mild diabetes compared to diabetic patients, Study arm 1, FIG. 1): higher efficacy
Efficacy, proportion of responders (subjects with NASH; patients without diabetes or with mild diabetes, Study arm 2 (900 mg EPA-E, TID), FIG. 1): equivalent to that of Study arm 1

CC/C=C\C/C=C\C/C=C\C/C=C\C/C=C\CCCC(=O)OCC [^14C-EPA-E]
Unchanged EPA-E in the plasma or tissues ([5]; after oral administration of 14C-EPA-E to the rat, liver, fat, heart and brain): no unchanged EPA-E was found
Distribution of radioactivity in body tissues ([5]; rats, relatively high levels in brown fat, adrenal, liver and pancreas): widely distributed
